Test results as given in patent US20190315711A1 (eXIthera Pharmaceuticals, Inc., priority 2016, published 2019).
Converted amounts (≈) assume the structure as drawn.

How the values were obtained:
[1] = molecular target: T1, Factor Xa (Homo sapiens, UniProt P00742); experiment: Dose response assay for protease inhibitors: Factor Xa; type: biochemical; conditions: ratio versus Factor XIa
T1 construct: Factor Xa; 0.2 μM in 50% glycerol (9.2 μg/mL)

[2] = molecular target: T2, Trypsin (Bos taurus, UniProt P00760); experiment: Dose response assay for protease inhibitors: trypsin; type: biochemical; conditions: ratio versus Factor XIa
T2 construct: gene PRSS1
T2 sequence (P00760 24-246): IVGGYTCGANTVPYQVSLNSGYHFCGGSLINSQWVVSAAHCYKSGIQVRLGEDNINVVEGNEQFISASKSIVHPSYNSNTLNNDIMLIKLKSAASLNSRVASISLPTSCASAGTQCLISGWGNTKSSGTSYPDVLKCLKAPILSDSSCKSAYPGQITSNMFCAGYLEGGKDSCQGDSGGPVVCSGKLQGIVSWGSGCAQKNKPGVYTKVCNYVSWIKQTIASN

[3] = Caco-2 cell permeability assay (A-B and B-A); type: in vitro ADME; conditions: human; for Papp A→B at 60 min, 10 μM: A-B direction; for Papp B→A at 40 min, 10 μM: B-A direction
Procedure, shortened: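 Caco-2 monolayers were used 21-25 days post-seeding, with compound at 10 μM (1% DMSO) in HBSS-MES pH 6.5 or HBSS-HEPES pH 7.4 on the donor side. Incubation was at 37° C with shaking for 60 min (A−B) or 40 min (B−A). Donor and receiver samples were quantified by HPLC-MS/MS, and Papp and recovery were calculated.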

[4] = Aqueous solubility in PBS pH 7.4; type: physicochemical; conditions: phosphate buffered saline, aqueous buffer, kinetic from dmso stock, PBS pH 7.4, room temperature
Description: The following procedure was used to determine the aqueous solubility of a test compound in phosphate buffered saline (PBS—NaCl 137 mM, KCl 2.7 mM, Na2HPO4 8.1 mM, KH2PO4 1.5 mM, pH 7.4) in 96-well plate format by HPLC-UV/VIS analysis. The test compound was prepared at 200 μM in PBS from a 10 mM DMSO stock solution. The final DMSO concentration was 2%. The PBS buffer samples were mixed thoroughly followed by incubation at room temperature for 24 h. At the end of the incubation, the PBS buffer samples were centrifuged and supernatants analyzed by HPLC. The aqueous solubility (μM) of the test compound in PBS was determined by comparing the peak area of the principal peak in the calibration standard (200 μM) with the peak area of the corresponding peak in each of the PBS samples. The range of the assay was approximately 0.5 μM to 200 μM. The reference compounds used in each assay were metoprolol, rifampicin, ketoconazole, phenytoin, haloperidol, simvastatin, diethylstilbestrol, and tamoxifen ranking from fully soluble (200 μM) to poorly soluble (<1 μM).

T1 sequence (P00742 235-488 limits assumed): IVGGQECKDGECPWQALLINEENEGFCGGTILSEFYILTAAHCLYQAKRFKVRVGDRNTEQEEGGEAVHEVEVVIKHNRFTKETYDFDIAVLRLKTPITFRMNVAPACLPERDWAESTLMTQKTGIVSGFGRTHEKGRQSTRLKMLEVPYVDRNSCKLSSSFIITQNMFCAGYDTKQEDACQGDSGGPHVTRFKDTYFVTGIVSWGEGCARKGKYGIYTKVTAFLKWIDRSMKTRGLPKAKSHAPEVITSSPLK
T1 sequence (P00742 41-179 partner limits assumed): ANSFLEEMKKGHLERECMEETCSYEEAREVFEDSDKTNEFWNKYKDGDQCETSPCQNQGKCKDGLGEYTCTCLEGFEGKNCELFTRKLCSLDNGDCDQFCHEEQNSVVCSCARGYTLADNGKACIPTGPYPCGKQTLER

| SMILES | FXa/FXIa (selectivity ratio) [1] | Ratio: Trypsin/FXIa [2] | Papp A→B at 60 min, 10 μM [3] | Papp B→A at 40 min, 10 μM [3] | solubility at 24 h [4] |
| --- | --- | --- | --- | --- | --- |
| CC[C@@H](NC(=O)N1C(=O)[C@H](Cc2ccnc(N)c2)[C@H]1C(=O)N(C)c1ncccn1)c1cccc(Cl)c1 [Compound 121] | I (“I” indicates >500) | G (“G” indicates 1-100) | 11 to 30 ×10⁻⁶ cm/s | 11 to 30 ×10⁻⁶ cm/s | > 100 µM |
| CC[C@H](NC(=O)N1C(=O)[C@H](Cc2ccnc(N)c2)[C@H]1C(=O)N(C)c1ccncc1)c1ccccc1C [Compound 97] | I (“I” indicates >500) | G (“G” indicates 1-100) | ≤ 10 ×10⁻⁶ cm/s | 31 to 50 ×10⁻⁶ cm/s | > 100 µM |
| CN(C(=O)[C@@H]1[C@@H](Cc2ccnc(N)c2)C(=O)N1C(=O)N[C@@H](C1CCCCC1)C(F)(F)F)c1ncccn1 [Compound 21] | I (“I” indicates >500) | G (“G” indicates 1-100) | 11 to 30 ×10⁻⁶ cm/s | ≤ 10 ×10⁻⁶ cm/s | > 100 µM |
| CC[C@@H](NC(=O)N1C(=O)[C@H](Cc2cc(C)nc(N)c2)[C@H]1C(=O)N(C)c1ccccc1)C1CCCCC1 [Compound 91] | I (“I” indicates >500) | G (“G” indicates 1-100) | 11 to 30 ×10⁻⁶ cm/s | ≤ 10 ×10⁻⁶ cm/s | > 100 µM |
| CN(C(=O)[C@@H]1[C@@H](Cc2ccnc(N)c2)C(=O)N1C(=O)N[C@@H](C1CC1)C(F)(F)F)c1ncccn1 [Compound 78] | I (“I” indicates >500) | – | 11 to 30 ×10⁻⁶ cm/s | > 50 ×10⁻⁶ cm/s | > 100 µM |
| CN(C(=O)[C@@H]1[C@@H](Cc2ccnc(N)c2)C(=O)N1C(=O)N[C@@H](C1CCCCC1)C1CC1)c1ccccc1 [Compound 36] | I (“I” indicates >500) | G (“G” indicates 1-100) | 31 to 50 ×10⁻⁶ cm/s | 11 to 30 ×10⁻⁶ cm/s | > 100 µM |
| CCN(C(=O)[C@@H]1[C@@H](Cc2ccnc(N)c2)C(=O)N1C(=O)N[C@@H](C1CCCCC1)C(F)(F)F)c1ccccc1 [Compound 24] | H (“H” indicates 101-1000) | G (“G” indicates 1-100) | 11 to 30 ×10⁻⁶ cm/s | ≤ 10 ×10⁻⁶ cm/s | 10 to 100 µM (≈ 5.32 to 53.2 µg/mL) |
| CC[C@@H](NC(=O)N1C(=O)[C@H](Cc2ccnc(N)c2)[C@H]1C(=O)N(C)c1ncccn1)c1cccnc1 [Compound 61] | H (“H” indicates 101-1000) | G (“G” indicates 1-100) | ≤ 10 ×10⁻⁶ cm/s | 11 to 30 ×10⁻⁶ cm/s | > 100 µM |
| CC[C@@H](NC(=O)N1C(=O)[C@H](Cc2ccnc(NC)c2)[C@H]1C(=O)N(C)c1ncccn1)C1CCCCC1 [Compound 80] | I (“I” indicates >500) | G (“G” indicates 1-100) | 11 to 30 ×10⁻⁶ cm/s | ≤ 10 ×10⁻⁶ cm/s | > 100 µM |
| CN(C(=O)[C@@H]1[C@@H](Cc2ccnc(N)c2)C(=O)N1C(=O)N[C@@H](C1CCCCC1)C(F)(F)F)c1cccc(F)c1 [Compound 22] | H (“H” indicates 101-1000) | G (“G” indicates 1-100) | 11 to 30 ×10⁻⁶ cm/s | ≤ 10 ×10⁻⁶ cm/s | 10 to 100 µM (≈ 5.36 to 53.6 µg/mL) |
| CC[C@@H](NC(=O)N1C(=O)[C@H](Cc2ccnc(N)c2)[C@H]1C(=O)N(C)c1ccncc1)c1cccc(OC)c1 [Compound 100] | H (“H” indicates 101-1000) | G (“G” indicates 1-100) | ≤ 10 ×10⁻⁶ cm/s | 31 to 50 ×10⁻⁶ cm/s | > 100 µM |
| CC[C@@H](NC(=O)N1C(=O)[C@H](Cc2ccnc(N)c2)[C@H]1C(=O)N(C)c1ccncc1)c1cccc(Cl)c1 [Compound 90] | I (“I” indicates >500) | G (“G” indicates 1-100) | ≤ 10 ×10⁻⁶ cm/s | 11 to 30 ×10⁻⁶ cm/s | > 100 µM |
| CC[C@@H](NC(=O)N1C(=O)[C@H](Cc2cc(C)nc(N)c2)[C@H]1C(=O)N(C)c1ccccc1)c1cccc(Cl)c1 [Compound 120] | I (“I” indicates >500) | G (“G” indicates 1-100) | 11 to 30 ×10⁻⁶ cm/s | ≤ 10 ×10⁻⁶ cm/s | 10 to 100 µM (≈ 5.2 to 52 µg/mL) |
| CN(C(=O)[C@@H]1[C@@H](Cc2ccnc(N)c2)C(=O)N1C(=O)N[C@@H](C1CCCCC1)C1CC1)c1ccncc1 [Compound 52] | I (“I” indicates >500) | G (“G” indicates 1-100) | 11 to 30 ×10⁻⁶ cm/s | 31 to 50 ×10⁻⁶ cm/s | > 100 µM |
| CC[C@@H](NC(=O)N1C(=O)[C@H](Cc2ccnc(N)c2)[C@H]1C(=O)N(C)c1ccncc1)c1ccccc1Cl [Compound 95] | I (“I” indicates >500) | G (“G” indicates 1-100) | ≤ 10 ×10⁻⁶ cm/s | 31 to 50 ×10⁻⁶ cm/s | > 100 µM |
| CN(C(=O)[C@@H]1[C@@H](Cc2ccnc(N)c2)C(=O)N1C(=O)NC(c1ccccc1)c1ccccc1)c1ccncc1 [Compound 82] | I (“I” indicates >500) | G (“G” indicates 1-100) | ≤ 10 ×10⁻⁶ cm/s | 31 to 50 ×10⁻⁶ cm/s | > 100 µM |
| CC[C@@H](NC(=O)N1C(=O)[C@H](Cc2ccnc(N)c2)[C@H]1C(=O)N(C)c1ccccc1)C1CCCCC1 [Compound 27] | I (“I” indicates >500) | G (“G” indicates 1-100) | 11 to 30 ×10⁻⁶ cm/s | 11 to 30 ×10⁻⁶ cm/s | > 100 µM |
| CC[C@@H](NC(=O)N1C(=O)[C@H](Cc2ccnc(N)c2)[C@H]1C(=O)N(C)c1ccncc1)c1cccc(C)c1 [Compound 87] | I (“I” indicates >500) | G (“G” indicates 1-100) | ≤ 10 ×10⁻⁶ cm/s | 31 to 50 ×10⁻⁶ cm/s | > 100 µM |
| CCC[C@@H](NC(=O)N1C(=O)[C@H](Cc2ccnc(N)c2)[C@H]1C(=O)N(C)c1ccccc1)C1CCCCC1 [Compound 50] | I (“I” indicates >500) | G (“G” indicates 1-100) | 31 to 50 ×10⁻⁶ cm/s | ≤ 10 ×10⁻⁶ cm/s | > 100 µM |
| CCC[C@@H](NC(=O)N1C(=O)[C@H](Cc2ccnc(N)c2)[C@H]1C(=O)N(C)c1ccncc1)c1ccccc1 [Compound 86] | I (“I” indicates >500) | G (“G” indicates 1-100) | ≤ 10 ×10⁻⁶ cm/s | 31 to 50 ×10⁻⁶ cm/s | > 100 µM |
| CC[C@@H](NC(=O)N1C(=O)[C@H](Cc2ccnc(N)c2)[C@H]1C(=O)N(C)c1ccncc1)c1cccnc1 [Compound 59] | I (“I” indicates >500) | G (“G” indicates 1-100) | ≤ 10 ×10⁻⁶ cm/s | ≤ 10 ×10⁻⁶ cm/s | > 100 µM |
| CC[C@@H](NC(=O)N1C(=O)[C@H](Cc2ccnc(N)c2)[C@H]1C(=O)N(C)c1ccccc1)C1CC1 [Compound 46] | H (“H” indicates 101-1000) | G (“G” indicates 1-100) | 11 to 30 ×10⁻⁶ cm/s | > 50 ×10⁻⁶ cm/s | > 100 µM |
| CN(C(=O)[C@@H]1[C@@H](Cc2ccnc(N)c2)C(=O)N1C(=O)N[C@@H](C1CCCCC1)C(F)(F)F)c1cccnc1 [Compound 17] | H (“H” indicates 101-1000) | G (“G” indicates 1-100) | 11 to 30 ×10⁻⁶ cm/s | 11 to 30 ×10⁻⁶ cm/s | > 100 µM |
| CN(C(=O)[C@@H]1[C@@H](Cc2ccnc(N)c2)C(=O)N1C(=O)N[C@@H](C1CC1)C(F)(F)F)c1ccncc1 [Compound 77] | H (“H” indicates 101-1000) | – | ≤ 10 ×10⁻⁶ cm/s | 31 to 50 ×10⁻⁶ cm/s | > 100 µM |
| CC[C@@H](NC(=O)N1C(=O)[C@H](Cc2ccnc(N)c2)[C@H]1C(=O)N(CC)c1ncccn1)C1CCCCC1 [Compound 39] | I (“I” indicates >500) | G (“G” indicates 1-100) | 11 to 30 ×10⁻⁶ cm/s | 11 to 30 ×10⁻⁶ cm/s | – |
